Measured values taken from PMC4560162, “Discovery of small molecule inhibitors of xyloglucan endotransglucosylase (XET) activity by high-throughput screening” (Phytochemistry, 2015).
Entries after “also recorded” stand apart in the source; their conditions may differ.

Columns and labels:
parsley XET activity = assay: Radiochemical XET assay (soluble xyloglucan + [3H]XXXGol); assay type: biochemical; details: for effect on XET activity, radiochemical re-screen of 206 compounds (mostly LATCA): LATCA approx. 25 μM, EDI approx. 200 μg/ml, listed in order of decreasing effectiveness; for effect on XET activity in radiochemical assays (as summarised in the discussion): free solution
Protocol: The parsley enzyme concentration was held constant, and the xenobiotics were tested at 200, 160, 120, 80, 40, 20, 10 and 0 μg/ml (concentrations in the final reaction mixture). Other details were as above.
The riboflavin-free controls received the same DMSO concentration.

[1] = tested on: Zea cell-suspension cultures; assay: Membrane function ([14C]proline uptake) in Zea culture; assay type: cell-based, Zea mays; details: 4 d after xenobiotic
[2] = tested on: Rosa cell-suspension cultures; assay: Membrane function ([14C]proline uptake) in Rosa culture; assay type: cell-based, Rosa ("Paul's Scarlet" rose); details: 4 d after xenobiotic, higher tested concentration
Protocol: Before testing the effects of XET-inhibitors on cell expansion, we defined their non-toxic concentrations. The eight XET-inhibiting xenobiotics mentioned in §2.7 were tested for cytotoxicity in cultured Rosa and Zea cells, by simple tests of the compounds’ ability to inhibit membrane and ribosome function based on [^14C]proline uptake and incorporation. In xenobiotic-free control 4-d-old Rosa cultures, 93.3% and 94.3% of the supplied [^14C]proline was absorbed from the medium within 2 and 4 h respectively, indicating healthy membrane function. In xenobiotic-free 4-d-old Zea cultures, the corresponding figures were 93.9% and 92.5%. By 4 h, 5.5% of the total [^14C]proline supplied had been incorporated into protein by Rosa and 9.3% by Zea cells, indicating healthy ribosome function. Against these control rates, we recorded any inhibition of membrane and ribosome function by the xenobiotics (Fig. 8). Each xenobiotic was tested at two concentrations (¼ and ^1/20 of the lowest non-tolerated concentration), which had been selected on the basis of preliminary experiments with a dilution series of the xenobiotic.
Eight xenobiotics that inhibited XET activity were selected for biological testing. Mini-cultures [2 ml, 5% (v/v) SCV; transferred from a standard culture 7 d after sub-culturing] were incubated in 12-well tissue culture microplates with the lids closed loosely. Xenobiotics were added as concentrated stocks in DMSO (final DMSO concentration 2%), and incubation was continued aseptically under standard conditions of temperature, lighting and shaking. After 4 d, 1 kBq of [^14C]proline was added per mini-culture. […] The culture was brought up to 10 ml with water and the settled and packed cell volumes (SCV, PCV) were then measured ([Fry and Street, 1980]). […] After 0.5 h at 100 °C, a 100-μl aliquot of the centrifuged SDS-extract was dried onto Whatman No. 3 paper, which was then washed in 75% ethanol supplemented with 0.5% acetic acid, thus removing free [^14C]proline and its low-Mr metabolites if any; radioactivity remaining on the paper ([^14C]protein) was then assayed.

[3] = tested on: Petroselinum xyloglucan endotransglucosylase (XET) activity; assay: Fluorescent dot-blot XET screen (cellulose-bound xyloglucan + XGO–SR on paper, in the dark); assay type: biochemical, parsley; details: for effect on XET activity in dot-blot (inhibition / promotion): EDI 0.4 mg/ml, LATCA 50 μM, 2 h, dark, cellulose-bound xyloglucan; for coagulation ('type c' effect) in dot-blot: EDI collection, 0.4 mg/ml in enzyme mixture
Protocol: For inhibitor screening, 53 new 96-well plates were set up with 50 μl of parsley enzyme extract per well, and 1 μl of DMSO-solubilised xenobiotic was added to each well, giving concentrations of 0.4 mg/ml (EDI collection, with exceptions noted in Table S2) or 50 μM (LATCA collection) and 2% v/v DMSO.
XET test-paper was prepared as before ([Fry, 1997]) and 112 × 75-mm sheets were attached to cellulose acetate overhead-projector sheets with ‘Spraymount’ adhesive. Each sheet was placed on a pre-cooled glass plate in a cold room at 4 °C.
For inhibitor screening (Fig. 2), 4 μl of a parsley enzyme/xenobiotic mixture was applied to each position on a sheet. Incubation at 20 °C for 2 h, washing, drying and photography were conducted essentially as above.

[4] = tested on: nine other cell-wall enzyme activities; assay: Dot-blot assays for nine additional wall enzyme activities; assay type: biochemical, parsley and lucerne (alfalfa); details: xenobiotic 200 mg/l
Protocol: Radiolabelled oligosaccharide ([1-^3H]Gal12-ol or [1-^3H]Xyl6-ol; 1 kBq; containing a trace of Orange G) was dried into each well of a 96-well plate. […] The mixture was incubated for 24 h (for Gal12-ol) or 48 h (for Xyl6-ol), then the 5-μl reaction mixture was dried onto each position on a piece of plain Whatman No. 1 paper in 96-well format. Visual inspection of the Orange G verified that the samples had been correctly applied to the paper. […] Thus, in this assay, radioactive spots reveal inhibition of the enzyme.

[5] = tested on: Zea cell-suspension cultures; assay: Cell expansion (SCV, PCV) in Zea cell-suspension culture; assay type: cell-based, Zea mays; details: Zea, 4 d incubation
Protocol: (§1) Cell-suspension cultures of “Paul’s Scarlet” rose [a complex hybrid; genus Rosa; isolated in October 1957 from sections of young stem material; [Nickell and Tulecke, 1959]) and maize (Zea mays L., Black Mexican Sweetcorn, donated by Dr. I. Moore, Department of Botany, University of Edinburgh) were grown under constant dim illumination (10 μmol m^−2 s^−1) on an orbital shaker at 25 °C. Rose cells were maintained as described by [Chormova et al. (2014)] and maize cells as described by [Kerr and Fry (2003)].
(§2) Eight xenobiotics that inhibited XET activity were selected for biological testing. Mini-cultures [2 ml, 5% (v/v) SCV; transferred from a standard culture 7 d after sub-culturing] were incubated in 12-well tissue culture microplates with the lids closed loosely. Xenobiotics were added as concentrated stocks in DMSO (final DMSO concentration 2%), and incubation was continued aseptically under standard conditions of temperature, lighting and shaking. After 4 d, 1 kBq of [^14C]proline was added per mini-culture. A small volume of medium (50 μl) was sampled 2 and 4 h after [^14C]proline addition and assayed for remaining extracellular ^14C. The culture was brought up to 10 ml with water and the settled and packed cell volumes (SCV, PCV) were then measured ([Fry and Street, 1980]). Most of the culture medium was then removed and the cells were finally killed by addition of 0.5 ml of 6% SDS. After 0.5 h at 100 °C, a 100-μl aliquot of the centrifuged SDS-extract was dried onto Whatman No. 3 paper, which was then washed in 75% ethanol supplemented with 0.5% acetic acid, thus removing free [^14C]proline and its low-Mr metabolites if any; radioactivity remaining on the paper ([^14C]protein) was then assayed.

[6] = tested on: Rosa cell-suspension cultures; assay: Cell expansion (SCV, PCV) in Rosa cell-suspension culture; assay type: cell-based, Rosa ("Paul's Scarlet" rose); details: Rosa, 4 d incubation
Protocol: as §1, §2

[7] = target: cyclic-AMP-dependent protein kinase, PKA; set-up: method as in Losiewicz et al., 1994; details: ref Losiewicz et al., 1994; cited from earlier work
[8] = soluble xyloglucan, laboratory light

effect on XET activity in dot-blot (inhibition / promotion) [3] | SMILES | effect on XET activity, radiochemical re-screen of 206 compounds (mostly LATCA) (parsley XET activity) | effect on XET activity in radiochemical assays (as summarised in the discussion) (parsley XET activity; [8]) | concentration inhibiting growth (PCV) without membrane impairment [5] [µM] | further results
did not show inhibitory effects | CC1=C(/C=C/C(C)=C/C=C/C(C)=C\C(=O)O)C(C)(C)CCC1 [13-cis-retinoic acid] | inhibition |  |  | membrane function ([1]; at the concentrations tested): only slightly; membrane function [2]: impaired
promoted | O=c1cc(-c2ccccc2)oc2cc(O)c(O)c(O)c12 [baicalein] |  | inhibited |  | coagulation ('type c' effect) in dot-blot [3]: coagulation
 | CCOc1ccc(Nc2ccc(/C(=C3C=C/C(=[N+](/CC)Cc4cccc(S(=O)(=O)[O-])c4)C=C/3C)c3ccc(N(CC)Cc4cccc(S(=O)(=O)O)c4)cc3C)cc2)cc1 [brilliant blue G] |  |  | 100 | number of the nine other wall enzyme activities inhibited [4]: three; effect on XET activity, first radiochemical re-screen of EDI hits (parsley XET activity; most xenobiotics at 200 μg/ml (≈200–800 μM)): inhibitory; membrane function ([1]; higher tested concentration): impaired; membrane function [2]: impaired
XET inhibitor | O=c1c2ccccc2[se]n1-c1ccccc1 [ebselen] | inhibition |  | 70 | 
promoted | O=C(O[C@@H]1Cc2c(O)cc(O)cc2O[C@@H]1c1cc(O)c(O)c(O)c1)c1cc(O)c(O)c(O)c1 [epigallocatechin gallate, (−)-epigallocatechin gallate] |  | inhibited | 40 | number of the nine other wall enzyme activities inhibited [4]: eight; IC50 (parsley XET activity; read-out: IC50 (concentration required for 50% inhibition of XET activity), radiochemical assay, soluble xyloglucan, laboratory light, 2 h, 20 °C): ~400 µM; concentration inhibiting growth (PCV) without membrane impairment [6]: 870 µM; membrane function ([1]; higher tested concentration): impaired; effect on XET activity in dot-blot (inhibition / promotion) ([3]; listed as (−)-epigallocatechin gallate): coagulating promoter; coagulation ('type c' effect) in dot-blot [3]: coagulation
did not show inhibitory effects | Cc1cc2nc3c(=O)[nH]c(=O)nc-3n(C[C@H](O)[C@H](O)[C@H](O)COP(=O)(O)OP(=O)(O)OC[C@H]3O[C@@H](n4cnc5c(N)ncnc54)[C@H](O)[C@@H]3O)c2cc1C [flavin adenine dinucleotide] | inhibition |  |  | 
 | CN1CC[C@H](c2c(O)cc(O)c3c(=O)cc(-c4ccccc4Cl)oc23)[C@H](O)C1 [flavopiridol] |  |  |  | IC50 [7]: 145 µM
promotion; also recorded: promoted | O=C(O)[C@H](O)[C@@H](O)[C@H](O[C@@H]1O[C@H](CO)[C@H](O)[C@H](O)[C@H]1O)[C@H](O)CO [lactobionic acid] |  | little effect |  | 

SMILES | effect on XET activity in dot-blot (inhibition / promotion) [3] | effect on XET activity, radiochemical re-screen of 206 compounds (mostly LATCA) (parsley XET activity) | effect on XET activity in radiochemical assays (as summarised in the discussion) (parsley XET activity; [8]) | concentration inhibiting growth (PCV) without membrane impairment [5] [µM] | further results
COc1cccc2c1C(=O)c1c(O)c3c(c(O)c1C2=O)C[C@@](O)(C(C)=O)C[C@@H]3O[C@H]1C[C@H](N)[C@H](O)[C@H](C)O1 [daunorubicin] | apparent promoters; also recorded: promoted |  | moderately inhibitory; also recorded: inhibited |  | 
